Source: PubChem BioAssay AID1259407 (Chemical Carcinogenesis Research Information System (CCRIS), 2018)
The source made the active and inactive calls. How the calls were made is not given here.

Test system: CCRIS mutagenicity, Ames/micronucleus/aberration tests
Assay: CCRIS mutagenicity studies
[1] = Test System: AMES SALMONELLA TYPHIMURIUM, Strain/Indicator: TA98, Metabolic Activation: NONE, Method: STANDARD PLATE

With CNNCc1ccc(C(=O)NC(C)C)cc1 the mutagenic call (Test System: AMES SALMONELLA TYPHIMURIUM, Strain/Indicator: TA97, Metabolic Activation: HAMSTER, LIVER, S-9, AROCLOR 1254 (10 OR 30%), Method: PREINCUBATION) was “inactive; negative”, the mutagenic call (Test System: AMES SALMONELLA TYPHIMURIUM, Strain/Indicator: TA97, Metabolic Activation: NONE, Method: PREINCUBATION) was “inactive; negative” and the mutagenic call (Test System: AMES SALMONELLA TYPHIMURIUM, Strain/Indicator: TA97, Metabolic Activation: RAT, LIVER, S-9, AROCLOR 1254 (10 OR 30%), Method: PREINCUBATION) was “inactive; negative”. For the same compound, the mutagenic call (Test System: AMES SALMONELLA TYPHIMURIUM, Strain/Indicator: TA98, Metabolic Activation: HAMSTER, LIVER, S-9, AROCLOR 1254 (10 OR 30%), Method: PREINCUBATION) was “inactive; negative”, the mutagenic call (Test System: AMES SALMONELLA TYPHIMURIUM, Strain/Indicator: TA98, Metabolic Activation: NONE, Method: PREINCUBATION) was “inactive; negative” and the mutagenic call [1] was “inactive; negative”. The mutagenic call (Test System: AMES SALMONELLA TYPHIMURIUM, Strain/Indicator: TA98, Metabolic Activation: RAT, LIVER, S-9, AROCLOR 1254 (10 OR 30%), Method: PREINCUBATION) was “inactive; negative”, the mutagenic call (Test System: AMES SALMONELLA TYPHIMURIUM, Strain/Indicator: TA98, Metabolic Activation: S-9, Method: PREINCUBATION) was “inactive; negative” and the mutagenic call (Test System: AMES SALMONELLA TYPHIMURIUM, Strain/Indicator: TA98, Metabolic Activation: S-9, Method: STANDARD PLATE) was “inactive; negative”. For the same compound, the mutagenic call (Test System: AMES SALMONELLA TYPHIMURIUM, Strain/Indicator: TA100, Metabolic Activation: HAMSTER, LIVER, S-9, AROCLOR 1254 (10 OR 30%), Method: PREINCUBATION) was “inactive; negative”, the mutagenic call (Test System: AMES SALMONELLA TYPHIMURIUM, Strain/Indicator: TA100, Metabolic Activation: NONE, Method: PREINCUBATION) was “inactive; negative” and the mutagenic call (Test System: AMES SALMONELLA TYPHIMURIUM, Strain/Indicator: TA100, Metabolic Activation: NONE, Method: STANDARD PLATE) was “inactive; negative”. The mutagenic call (Test System: AMES SALMONELLA TYPHIMURIUM, Strain/Indicator: TA100, Metabolic Activation: RAT, LIVER, S-9, AROCLOR 1254 (10 OR 30%), Method: PREINCUBATION) was “inactive; negative”, the mutagenic call (Test System: AMES SALMONELLA TYPHIMURIUM, Strain/Indicator: TA100, Metabolic Activation: RAT, LIVER, S-9, PYRAZOLE, Method: PREINCUBATION) was “inactive; negative” and the mutagenic call (Test System: AMES SALMONELLA TYPHIMURIUM, Strain/Indicator: TA100, Metabolic Activation: S-9, Method: PREINCUBATION) was “inactive; negative”. For the same compound, the mutagenic call (Test System: AMES SALMONELLA TYPHIMURIUM, Strain/Indicator: TA100, Metabolic Activation: S-9, Method: STANDARD PLATE) was “inactive; negative”, the mutagenic call (Test System: AMES SALMONELLA TYPHIMURIUM, Strain/Indicator: TA1530 (PKM101), Metabolic Activation: RAT, LIVER, S-9, ETHANOL, Method: PREINCUBATION) was “inactive; negative” and the mutagenic call (Test System: AMES SALMONELLA TYPHIMURIUM, Strain/Indicator: TA1530 (PKM101), Metabolic Activation: RAT, LIVER, S-9, PYRAZOLE, Method: PREINCUBATION) was “inactive; negative”. The mutagenic call (Test System: AMES SALMONELLA TYPHIMURIUM, Strain/Indicator: TA1535, Metabolic Activation: HAMSTER, LIVER, S-9, AROCLOR 1254 (10 OR 30%), Method: PREINCUBATION) was “inactive; negative”, the mutagenic call (Test System: AMES SALMONELLA TYPHIMURIUM, Strain/Indicator: TA1535, Metabolic Activation: NONE, Method: PREINCUBATION) was “inactive; negative” and the mutagenic call (Test System: AMES SALMONELLA TYPHIMURIUM, Strain/Indicator: TA1535, Metabolic Activation: RAT, LIVER, S-9, AROCLOR 1254 (10 OR 30%), Method: PREINCUBATION) was “inactive; negative”. For the same compound, the mutagenic call (Test System: AMES SALMONELLA TYPHIMURIUM, Strain/Indicator: TA1535, Metabolic Activation: RAT, LIVER, S-9, PYRAZOLE, Method: PREINCUBATION) was “inactive; negative”, the mutagenic call (Test System: AMES SALMONELLA TYPHIMURIUM, Strain/Indicator: TA1537, Metabolic Activation: HAMSTER, LIVER, S-9, AROCLOR 1254 (10 OR 30%), Method: PREINCUBATION) was “inactive; negative” and the mutagenic call (Test System: AMES SALMONELLA TYPHIMURIUM, Strain/Indicator: TA1537, Metabolic Activation: NONE, Method: PREINCUBATION) was “inactive; negative”. The mutagenic call (Test System: AMES SALMONELLA TYPHIMURIUM, Strain/Indicator: TA1537, Metabolic Activation: RAT, LIVER, S-9, AROCLOR 1254 (10 OR 30%), Method: PREINCUBATION) was “inactive; negative”, the mutagenic call (Test System: CHINESE HAMSTER OVARY, Strain/Indicator: CHO-K1-BH4 (HGPRT), Metabolic Activation: RAT, LIVER, S-9, AROCLOR, Method: SUSPENSION/PLATE) was “active; positive” and the mutagenic call (Test System: CHINESE HAMSTER V-79, Strain/Indicator: V-79/6-THIOGUANINE, Metabolic Activation: NONE, Method: CELL-MEDIATED) was “active; positive”. For the same compound, the mutagenic call (Test System: CHINESE HAMSTER V-79, Strain/Indicator: V-79/6-THIOGUANINE, Metabolic Activation: RAT, LIVER, HEPATOCYTES, AROCLOR 1254, Method: CELL-MEDIATED) was “active; positive”, the mutagenic call (Test System: CHINESE HAMSTER V-79, Strain/Indicator: V-79/6-THIOGUANINE, Metabolic Activation: RAT, LIVER, HEPATOCYTES, Method: CELL-MEDIATED) was “active; positive” and the mutagenic call (Test System: CHINESE HAMSTER V-79, Strain/Indicator: V-79/6-THIOGUANINE, Metabolic Activation: RAT, LIVER, S-9, AROCLOR 1254, Method: CELL-MEDIATED) was “active; positive”. For the same compound, the mutagenic call (Test System: CHINESE HAMSTER V-79, Strain/Indicator: V-79/6-THIOGUANINE, Metabolic Activation: RAT, LIVER, S-9, Method: CELL-MEDIATED) was “active; positive”, the mutagenic call (Test System: E. COLI, Strain/Indicator: WP2 (HCR), Metabolic Activation: NONE, Method: STANDARD PLATE) was “inactive; negative” and the mutagenic call (Test System: E. COLI, Strain/Indicator: WP2 (HCR), Metabolic Activation: S-9, Method: STANDARD PLATE) was “inactive; negative”. The mutagenic call (Test System: E. COLI, Strain/Indicator: WP2 (PKM101), Metabolic Activation: RAT, LIVER, S-9, PYRAZOLE, Method: PREINCUBATION) was “inactive; negative”, the mutagenic call (Test System: E. COLI, Strain/Indicator: WP2 UVRA (PKM101), Metabolic Activation: RAT, LIVER, S-9, PYRAZOLE, Method: PREINCUBATION) was “inactive; negative” and the mutagenic call (Test System: E. COLI, Strain/Indicator: WP2 UVRA, Metabolic Activation: HAMSTER, LIVER, S-9, AROCLOR 1254, Method: STANDARD PLATE) was “inactive; negative”. For the same compound, the mutagenic call (Test System: E. COLI, Strain/Indicator: WP2 UVRA, Metabolic Activation: HAMSTER, LIVER, S-9, Method: STANDARD PLATE) was “inactive; negative”, the mutagenic call (Test System: E. COLI, Strain/Indicator: WP2 UVRA, Metabolic Activation: MOUSE, LIVER, S-9, AROCLOR 1254, Method: STANDARD PLATE) was “inactive; negative” and the mutagenic call (Test System: E. COLI, Strain/Indicator: WP2 UVRA, Metabolic Activation: MOUSE, LIVER, S-9, Method: STANDARD PLATE) was “inactive; negative”. The mutagenic call (Test System: E. COLI, Strain/Indicator: WP2 UVRA, Metabolic Activation: NONE, Method: STANDARD PLATE) was “inactive; negative”, the mutagenic call (Test System: E. COLI, Strain/Indicator: WP2 UVRA, Metabolic Activation: RAT, LIVER, S-9, AROCLOR 1254, Method: STANDARD PLATE) was “inactive; negative” and the mutagenic call (Test System: E. COLI, Strain/Indicator: WP2 UVRA, Metabolic Activation: RAT, LIVER, S-9, Method: STANDARD PLATE) was “inactive; negative”. The mutagenic call (Test System: MOUSE LYMPHOMA, Strain/Indicator: L5178Y (HGPRT), Metabolic Activation: NONE, Method: SUSPENSION/PLATE) was “active; positive”, the mutagenic call (Test System: MOUSE LYMPHOMA, Strain/Indicator: L5178Y (TK+/TK-), Metabolic Activation: NONE, Method: MICROWELL) was “active; positive” and the mutagenic call (Test System: MOUSE LYMPHOMA, Strain/Indicator: L5178Y (TK+/TK-), Metabolic Activation: NONE, Method: MINIWELL) was “active; positive”. The mutagenic call (Test System: MOUSE LYMPHOMA, Strain/Indicator: L5178Y (TK+/TK-), Metabolic Activation: RAT, LIVER, S-9, AROCLOR 1242 AND 1254 (2:1), Method: SUSPENSION/PLATE) was “active; positive” and the mutagenic call (Test System: MOUSE LYMPHOMA, Strain/Indicator: L5178Y (TK+/TK-), Metabolic Activation: RAT, LIVER, S-9, AROCLOR 1254, Method: SUSPENSION/PLATE) was “active; positive”.
With CC(C)(C)NC[C@H](O)COc1ccc(O)cc1C1CCCC1 the mutagenic call [1] was “inactive; negative” and the mutagenic call (Test System: AMES SALMONELLA TYPHIMURIUM, Strain/Indicator: TA98, Metabolic Activation: RAT, LIVER, S-9, AROCLOR 1254, Method: STANDARD PLATE) was “inactive; negative”.
